Consider 17 molecules from patent US20220306659A1, “COMPOUND INHIBITING AND INDUCING DEGRADATION OF EGFR AND ALK” (BEIJING TIDE PHARMACEUTICAL CO., LTD., priority 2019, published 2022).

Assay [1] concerns the target Ba/F3(EGFR^L858R/T790M/C797S) cells (Homo sapiens, UniProt P00533, T790M/C797S/L858R, cells depend on it). As to the kind of experiment: Assay of activity on Ba/F3 cells (CTG, 72 h). The conditions noted are these: read-out: IC50 (nM) Ba/F3 (EGFR^L858R/T790M/C797S). It is filed as cell-based. As to the method:
(§1) (2) A compound stock solution was prepared, and then diluted 3× to obtain a compound dilution. 30 nL of the compound dilution was added to a 384-well plate by Echo (Labcyte, Echo550). The cells were incubated in an incubator at 37° C. and 5% CO2 for 72 h.
(§2) The percent inhibition rate (% inhibition) was calculated by the following formula
(§3) LUMcmpd: Luminescence value of assay compound.
(§4) LUMpositive: Average LUM value of positive drug at a concentration of 10 μM.
(§5) LUMvehicle. Average LUM value of negative control group without drug treatment.
(§6) The nonlinear regression curve (dose response-variable slope) between the value of inhibition rate (%) and the logarithm of compound concentration was fitted with graphpad prism 8.0, the effect dose curve of compound was drawn, and the IC50 value was calculated.
(§7) Y=Bottom+(Top−Bottom)/(1+1^((LogIC50−X)*HillSlope))
(§8) X-axis: logarithm of compound concentration; Y axis: inhibition rate ([…]).

Assay [2] has as its target Ba/F3(EGFR^Del19/T790M/C797S) cells (Homo sapiens, UniProt P00533, DEL746-750/T790M/C797S, cells depend on it). As to the kind of experiment: Assay of activity on Ba/F3 cells (CTG, 72 h). The format is cell-based. The conditions noted are these: read-out: IC50 (nM) Ba/F3 (EGFR^Del19/T790M/C797S). The protocol: as §1, §2, §3, §4, §5, §6, §7, §8

Sequence of Ba/F3(EGFR^Del19/T790M/C797S) cells (P00533 with tags, fused parts or gaps DEL746-750/T790M/C797S): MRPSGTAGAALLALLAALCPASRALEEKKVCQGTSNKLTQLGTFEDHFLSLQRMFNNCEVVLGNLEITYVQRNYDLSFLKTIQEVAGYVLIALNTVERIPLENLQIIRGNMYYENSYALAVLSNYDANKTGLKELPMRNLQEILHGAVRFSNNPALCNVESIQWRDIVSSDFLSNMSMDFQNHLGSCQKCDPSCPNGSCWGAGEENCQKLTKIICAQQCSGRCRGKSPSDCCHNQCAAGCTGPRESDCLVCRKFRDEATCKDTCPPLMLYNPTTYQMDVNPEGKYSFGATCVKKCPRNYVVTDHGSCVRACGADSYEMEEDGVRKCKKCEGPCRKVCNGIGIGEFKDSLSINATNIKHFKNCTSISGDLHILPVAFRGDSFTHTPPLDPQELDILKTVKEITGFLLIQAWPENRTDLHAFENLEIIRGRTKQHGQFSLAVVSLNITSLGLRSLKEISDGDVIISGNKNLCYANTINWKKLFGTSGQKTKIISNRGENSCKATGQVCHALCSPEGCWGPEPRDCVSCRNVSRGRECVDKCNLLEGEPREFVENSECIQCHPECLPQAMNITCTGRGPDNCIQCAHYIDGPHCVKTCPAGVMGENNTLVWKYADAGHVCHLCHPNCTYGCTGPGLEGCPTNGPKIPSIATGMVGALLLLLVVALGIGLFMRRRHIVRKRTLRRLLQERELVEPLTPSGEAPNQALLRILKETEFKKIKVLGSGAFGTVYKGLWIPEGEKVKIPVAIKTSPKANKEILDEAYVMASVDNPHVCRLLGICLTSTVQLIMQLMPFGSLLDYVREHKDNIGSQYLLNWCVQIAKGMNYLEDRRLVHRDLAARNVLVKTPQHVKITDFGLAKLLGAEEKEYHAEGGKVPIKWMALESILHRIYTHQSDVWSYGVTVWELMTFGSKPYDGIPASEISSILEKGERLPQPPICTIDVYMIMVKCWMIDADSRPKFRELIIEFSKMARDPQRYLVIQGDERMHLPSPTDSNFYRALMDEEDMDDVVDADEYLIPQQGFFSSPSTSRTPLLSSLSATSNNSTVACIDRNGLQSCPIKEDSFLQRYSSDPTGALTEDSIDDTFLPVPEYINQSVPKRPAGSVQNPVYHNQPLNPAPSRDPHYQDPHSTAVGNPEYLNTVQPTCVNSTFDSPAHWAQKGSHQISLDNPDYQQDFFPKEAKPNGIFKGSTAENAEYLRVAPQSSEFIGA
Sequence of Ba/F3(EGFR^L858R/T790M/C797S) cells (P00533 whole entry T790M/C797S/L858R): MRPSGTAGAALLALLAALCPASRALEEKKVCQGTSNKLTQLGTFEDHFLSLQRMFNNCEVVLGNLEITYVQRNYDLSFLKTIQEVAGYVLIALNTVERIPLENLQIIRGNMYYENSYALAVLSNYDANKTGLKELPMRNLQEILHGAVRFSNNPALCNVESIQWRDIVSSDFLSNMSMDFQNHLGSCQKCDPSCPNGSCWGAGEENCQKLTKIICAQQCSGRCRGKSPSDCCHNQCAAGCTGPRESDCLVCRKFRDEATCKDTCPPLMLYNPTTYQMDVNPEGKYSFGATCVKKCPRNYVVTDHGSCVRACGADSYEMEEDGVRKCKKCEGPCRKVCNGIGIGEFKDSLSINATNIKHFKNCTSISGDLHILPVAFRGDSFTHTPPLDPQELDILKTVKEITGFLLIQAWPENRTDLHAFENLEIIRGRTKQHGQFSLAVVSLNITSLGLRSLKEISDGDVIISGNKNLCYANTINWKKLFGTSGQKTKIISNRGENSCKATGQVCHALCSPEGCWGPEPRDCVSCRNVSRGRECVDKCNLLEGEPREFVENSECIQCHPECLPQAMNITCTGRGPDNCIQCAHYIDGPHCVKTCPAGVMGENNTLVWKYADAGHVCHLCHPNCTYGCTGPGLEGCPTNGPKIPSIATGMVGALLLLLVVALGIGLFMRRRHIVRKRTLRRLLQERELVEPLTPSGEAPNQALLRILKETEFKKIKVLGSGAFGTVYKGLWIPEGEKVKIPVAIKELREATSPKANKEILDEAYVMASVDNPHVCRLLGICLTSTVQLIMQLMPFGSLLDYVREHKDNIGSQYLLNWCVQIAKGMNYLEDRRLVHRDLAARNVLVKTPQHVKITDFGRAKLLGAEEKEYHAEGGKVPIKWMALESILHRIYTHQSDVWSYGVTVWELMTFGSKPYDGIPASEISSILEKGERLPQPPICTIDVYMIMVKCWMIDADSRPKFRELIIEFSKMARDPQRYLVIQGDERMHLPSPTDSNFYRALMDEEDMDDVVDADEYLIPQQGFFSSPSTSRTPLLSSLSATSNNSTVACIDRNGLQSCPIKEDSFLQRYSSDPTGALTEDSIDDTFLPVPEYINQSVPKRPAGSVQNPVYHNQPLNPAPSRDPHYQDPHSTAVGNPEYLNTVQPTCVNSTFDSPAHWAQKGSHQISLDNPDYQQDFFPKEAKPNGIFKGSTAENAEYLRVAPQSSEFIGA

Turning to `COc1cc(N2CCC(N3CCNCC3)CC2)ccc1Nc1ncc(Cl)c(Nc2ccccc2P(C)(C)=O)n1` [Compound A1-4, (2-((5-Chloro-2-((2-methoxy-4-(4-(piperazin-1-yl)piperidin-1-yl)phenyl)amino)pyrimidin-4-yl)amino)phenyl)dimethyl phosphorus oxide], the GI50 in assay [1] and in assay [2] was greater than 300 nM each time.
Turning to `COc1cc(N2CCC(N3CCN(CCCCCCCOC4CN(c5cccc6c5C(=O)N(C5CCC(=O)NC5=O)C6=O)C4)CC3)CC2)ccc1Nc1ncc(Cl)c(Nc2ccccc2P(C)(C)=O)n1` (stereo not drawn) [Compound C150, 4-(3-((7-(4-(1-(4-((5-chloro-4-((2-(dimethylphosphoryl)phenyl)amino)pyrimidin-2-yl)amino)-3-methoxyphenyl)piperidin-4-yl)piperazin-1-yl)heptyl)oxy)azetidin-1-yl)-2-(2,6-dioxopiperidin-3-yl)isoindoline-1,3-dione], the GI50 in assay [1] was greater than 300 nM.
Turning to `COc1cc(N2CCC(N3CCN(CCCCCn4cc(-c5cccc6c5CN(C5CCC(=O)NC5=O)C6=O)cn4)CC3)CC2)ccc1Nc1ncc(Cl)c(Nc2ccccc2P(C)(C)=O)n1` (stereo not drawn) [Compound C162, 3-(4-(1-(5-(4-(1-(4-((5-chloro-4-((2-(dimethylphosphoryl)phenyl)amino)pyrimidin-2-yl)amino)-3-methoxyphenyl)piperidin-4-yl)piperazin-1-yl)pentyl)-1H-pyrazol-4-yl)-1-oxoisoindolin-2-yl)piperidine-2,6-dione], the GI50 in assay [1] and in assay [2] was greater than 300 nM in each case.
Take `COc1cc(N2CCC(N3CCN(CCCCCC#Cc4c(F)ccc5c4CN(C4CCC(=O)NC4=O)C5=O)CC3)CC2)ccc1Nc1ncc(Cl)c(Nc2ccccc2P(C)(C)=O)n1` (stereo not drawn) [Compound C166, 3-(4-(7-(4-(1-(4-((5-chloro-4-((2-(dimethylphosphoryl)phenyl)amino)pyrimidin-2-yl)amino)-3-methoxyphenyl)piperidin-4-yl)piperazin-1-yl)hept-1-yn-1-yl)-5-fluoro-1-oxoisoindolin-2-yl)piperidine-2,6-dione]: the GI50 in assay [1] lay in the range of 101 to 200 nM; in assay [2], 1 to 100 nM.
For `COc1cc(N2CCC3(CCN(CCOCC#Cc4cccc5c4CN(C4CCC(=O)NC4=O)C5=O)CC3)CC2)c(C)cc1Nc1ncc(Br)c(Nc2ccc3nccnc3c2P(C)(C)=O)n1` (stereo not drawn) [Compound C174, 3-(4-(3-(2-(9-(4-((5-bromo-4-((5-(dimethylphosphoryl)quinoxalin-6-yl)amino)pyrimidin-2-yl)amino)-5-methoxy-2-methylphenyl)-3,9-diazaspiro[5.5]undecan-3-yl)ethoxy)prop-1-yn-1-yl)-1-oxoisoindolin-2-yl)piperidine-2,6-dione], in that order: 1 to 100 nM and 1 to 100 nM.
Turning to `COc1cc(N2CCC(N3CCN(CCCCCCCCc4cccc5c4CN(C4CCC(=O)NC4=O)C5=O)CC3)CC2)ccc1Nc1ncc(Cl)c(Nc2ccccc2P(C)(C)=O)n1` (stereo not drawn) [Compound C240, 3-(4-(8-(4-(1-(4-((5-chloro-4-((2-(dimethylphosphoryl)phenyl)amino)pyrimidin-2-yl)amino)-3-methoxyphenyl)piperidin-4-yl)piperazin-1-yl)octyl)-1-oxoisoindolin-2-yl)piperidine-2,6-dione], the GI50 in assay [2] is 1 to 100 nM.
On to `COc1cc(N2CCC(N3CCN(CCCCCC#Cc4ccc(F)c5c4CN(C4CCC(=O)NC4=O)C5=O)CC3)CC2)ccc1Nc1ncc(Cl)c(Nc2ccccc2P(C)(C)=O)n1` (stereo not drawn) [Compound C243, 3-(4-(7-(4-(1-(4-((5-chloro-4-((2-(dimethylphosphoryl)phenyl)amino)pyrimidin-2-yl)amino)-3-methoxyphenyl)piperidin-4-yl)piperazin-1-yl)hept-1-yn-1-yl)-7-fluoro-1-oxoisoindolin-2-yl)piperidine-2,6-dione], for which the GI50 in assay [2] was 1 to 100 nM.
On the same count and under the same terms, as for `COc1cc(N2CCC(N3CCN(CCCCCCCc4cccc5c4CN(C4CCC(=O)NC4=O)C5=O)CC3)CC2)ccc1Nc1ncc(Cl)c(Nc2ccccc2P(C)(C)=O)n1` (stereo not drawn) [Compound C245, 3-(4-(7-(4-(1-(4-((5-chloro-4-((2-(dimethylphosphoryl)phenyl)amino)pyrimidin-2-yl)amino)-3-methoxyphenyl)piperidin-4-yl)piperazin-1-yl)heptyl)-1-oxoisoindolin-2-yl)piperidine-2,6-dione], the figure is 1 to 100 nM; as for `COc1cc(N2CCC(N3CCN(CCCC#Cc4cc(C#N)cc5c4CN(C4CCC(=O)NC4=O)C5=O)CC3)CC2)ccc1Nc1ncc(Cl)c(Nc2ccccc2P(C)(C)=O)n1` (stereo not drawn) [Compound C258, 7-(5-(4-(1-(4-((5-chloro-4-((2-(dimethylphosphoryl)phenyl)amino)pyrimidin-2-yl)amino)-3-methoxyphenyl)piperidin-4-yl)piperazin-1-yl)pent-1-yn-1-yl)-2-(2,6-dioxopiperidin-3-yl)-3-oxoisoindoline-5-carbonitrile], 1 to 100 nM.
As for `COc1cc(N2CCC(N3CCN(CCCCC#Cc4cc(C#N)cc5c4CN(C4CCC(=O)NC4=O)C5=O)CC3)CC2)ccc1Nc1ncc(Cl)c(Nc2ccccc2P(C)(C)=O)n1` (stereo not drawn) [Compound C259, 7-(6-(4-(1-(4-((5-chloro-4-((2-(dimethylphosphoryl)phenyl)amino)pyrimidin-2-yl)amino)-3-methoxyphenyl)piperidin-4-yl)piperazin-1-yl)hex-1-yn-1-yl)-2-(2,6-dioxopiperidin-3-yl)-3-oxoisoindoline-5-carbonitrile], in assay [2], the GI50 was in the range of 1 to 100 nM.
As to `COc1cc(N2CCC(N3CCN(CCCCCC#Cc4cc(C(F)(F)F)cc5c4CN(C4CCC(=O)NC4=O)C5=O)CC3)CC2)ccc1Nc1ncc(Cl)c(Nc2ccccc2P(C)(C)=O)n1` (stereo not drawn) [Compound C267, 3-(4-(7-(4-(1-(4-((5-chloro-4-((2-(dimethylphosphoryl)phenyl)amino)pyrimidin-2-yl)amino)-3-methoxyphenyl)piperidin-4-yl)piperazin-1-yl)hept-1-yn-1-yl)-1-oxo-6-(trifluoromethyl)isoindolin-2-yl)piperidine-2,6-dione], the GI50 in assay [2] was 1 to 100 nM.
On the same count and under the same terms, as for `COc1cc(N2CCC(N3CCN(CCCCC#Cc4cc(C(F)(F)F)cc5c4CN(C4CCC(=O)NC4=O)C5=O)CC3)CC2)ccc1Nc1ncc(Cl)c(Nc2ccccc2P(C)(C)=O)n1` (stereo not drawn) [Compound C268, 3-(4-(6-(4-(1-(4-((5-chloro-4-((2-(dimethylphosphoryl)phenyl)amino)pyrimidin-2-yl)amino)-3-methoxyphenyl)piperidin-4-yl)piperazin-1-yl)hex-1-yn-1-yl)-1-oxo-6-(trifluoromethyl)isoindolin-2-yl)piperidine-2,6-dione], the figure is 1 to 100 nM; as for `COc1cc(N2CCC(N3CCN(CCCC#Cc4cc(C(F)(F)F)cc5c4CN(C4CCC(=O)NC4=O)C5=O)CC3)CC2)ccc1Nc1ncc(Cl)c(Nc2ccccc2P(C)(C)=O)n1` (stereo not drawn) [Compound C269, 3-(4-(5-(4-(1-(4-((5-chloro-4-((2-(dimethylphosphoryl)phenyl)amino)pyrimidin-2-yl)amino)-3-methoxyphenyl)piperidin-4-yl)piperazin-1-yl)pent-1-yn-1-yl)-1-oxo-6-(trifluoromethyl)isoindolin-2-yl)piperidine-2,6-dione], 1 to 100 nM.
Consider `COc1cc(N2CCC(N3CCN(CCCCCc4cccc5c4CN(C4CCC(=O)NC4=O)C5=O)CC3)CC2)c(C)cc1Nc1ncc(Br)c(Nc2ccc3nccnc3c2P(C)(C)=O)n1` (stereo not drawn) [Compound C285, 3-(4-(5-(4-(1-(4-((5-bromo-4-((5-(dimethylphosphoryl)quinoxalin-6-yl)amino)pyrimidin-2-yl)amino)-5-methoxy-2-methylphenyl)piperidin-4-yl)piperazin-1-yl)pentyl)-1-oxoisoindolin-2-yl)piperidine-2,6-dione], for which the GI50 in assay [2] lay in the range of 1 to 100 nM.
On the same count and under the same terms, with `COc1cc(N2CCC(N3CCN(CCCCCCc4cccc5c4CN(C4CCC(=O)NC4=O)C5=O)CC3)CC2)c(C)cc1Nc1ncc(Br)c(Nc2ccc3nccnc3c2P(C)(C)=O)n1` (stereo not drawn) [Compound C286, 3-(4-(6-(4-(1-(4-((5-bromo-4-((5-(dimethylphosphoryl)quinoxalin-6-yl)amino)pyrimidin-2-yl)amino)-5-methoxy-2-methylphenyl)piperidin-4-yl)piperazin-1-yl)hexyl)-1-oxoisoindolin-2-yl)piperidine-2,6-dione] the figure was 1 to 100 nM.
As for `COc1cc(N2CCC(N3CCN(CCCCc4cccc5c4CN(C4CCC(=O)NC4=O)C5=O)CC3)CC2)c(C)cc1Nc1ncc(Br)c(Nc2ccc3nccnc3c2P(C)(C)=O)n1` (stereo not drawn) [Compound C301, 3-(4-(4-(4-(1-(4-((5-bromo-4-((5-(dimethylphosphoryl)quinoxalin-6-yl)amino)pyrimidin-2-yl)amino)-5-methoxy-2-methylphenyl)piperidin-4-yl)piperazin-1-yl)butyl)-1-oxoisoindolin-2-yl)piperidine-2,6-dione], in assay [2], the GI50 lay in the range of 1 to 100 nM.
As for `COc1cc(N2CCC3(CCN(CCCCc4cccc5c4CN(C4CCC(=O)NC4=O)C5=O)CC3)CC2)c(C)cc1Nc1ncc(Br)c(Nc2ccc3nccnc3c2P(C)(C)=O)n1` (stereo not drawn) [Compound C302, 3-(4-(4-(9-(4-((5-bromo-4-((5-(dimethylphosphoryl)quinoxalin-6-yl)amino)pyrimidin-2-yl)amino)-5-methoxy-2-methylphenyl)-3,9-diazaspiro[5.5]undecan-3-yl)butyl)-1-oxoisoindolin-2-yl)piperidine-2,6-dione], in assay [2], the GI50 was in the range of 1 to 100 nM.
